Experimental data published in patent US20060270684A1, “Crystalline forms of ziprasidone mesylate” (priority 2005, published 2006).
Where a name gives a salt, the structure may show the parent alone. One block for each molecule: values may come before it.

Assays:
[1] = Transformations by heat (XRD and Karl Fisher after heating); assay type: physicochemical
Description: (§1) X-Ray powder diffraction data were obtained using a SCINTAG powder X-Ray diffractometer model X'TRA equipped with a solid state detector. Copper radiation of 1.5418 Å was used. A round aluminum sample holder with zero background was used. All peak positions are within ±0.2 degrees two theta.
(§2) Karl Fisher analysis was performed according to the known art.

[2] = Water absorption of Form IX after exposure for 10 days to 100% relative humidity at room temperature; assay type: physicochemical
Description: The present invention provides non-hygroscopic crystalline form of ziprasidone mesylate Form IX. Form IX was tested for water absorption after exposure for 10 days to 100% relative humidity at room temperature, as summarized in the following table:
as §2
Ziprasidone mesylate Form IX was exposed to 100% humidity at room temperature for 10 days. Before the exposure the water content was measured to be about 4.8%, while after the exposure the water content was measure to be about 5.0% water. The difference between water content before and after the exposure to 100% humidity is 0.2%.

[3] = Water absorption of Form XVIII, 7 days at 30° C. under humidity; assay type: physicochemical
Description: as §1, §2

[4] = Water absorption of Form I at room temperature for 7 days under various relative humidity conditions; assay type: physicochemical
Description: Copper radiation of 1.5418 Å was used. A round aluminum sample holder with zero background was used. All peak positions are within ±0.2 degrees two theta. Karl Fisher analysis was performed according to the known art.

[5] = aqueous medium at ambient temperature; cited from earlier work
[6] = heated at TEMP. 90, 30 min, mesylate dihydrate
[7] = heated at TEMP. 120, 30 min, mesylate dihydrate
[8] = 100% humidity at room temperature for 10 days
[9] = 60% RH, room temperature, 7 days
[10] = 80% RH, room temperature, 7 days
[11] = 100% RH, room temperature, 7 days

Water content (by KF) ([3]; 80% RH, 7 days at 30° C.): 8.2%
crystal form (by XRD) ([3]; 80% RH, 7 days at 30° C.): Trihydrate
crystal form (by XRD) ([3]; 80% RH, 7 days at 30° C., listed as form XVIII): transformation to trihydrate
water content determined by Karl Fisher ([3]; 80% humidity for 7 days at 30° C.): about 8.2%
Water content (by KF) ([3]; 100% RH, 7 days at 30° C.): 9.1%
crystal form (by XRD) ([3]; 100% RH, 7 days at 30° C.): Trihydrate
Water content (by KF) ([3]; Initial): 2%
crystal form (by XRD) ([3]; Initial): XVIII
Molecule: O=C1Cc2cc(CCN3CCN(c4nsc5ccccc45)CC3)c(Cl)cc2N1 [Form XVIII, ziprasidone mesylate]

K.F. [1, 6]: 3%
RESULT (XRD) [1, 6]: Dihydrate needle
K.F. [1, 7]: 0.5%
RESULT (XRD) [1, 7]: Dihydrate needle
Molecule: ziprasidone mesylate dihydrate [Dihydrate needle]

crystal form (by XRD) [4, 9]: Form I
water content (by Karl Fisher) [4, 9]: 2.5%
crystal form (by XRD) [4, 10]: Form I
water content (by Karl Fisher) [4, 10]: 3.1%
crystal form (by XRD) [4, 11]: Form I
water content (by Karl Fisher) [4, 11]: 4.6%
crystal form (by XRD) ([4]; Initial): Form I
water content (by Karl Fisher) ([4]; Initial): 2.3%
stability when tested for water absorption ([4]; room temperature, 7 days, various relative humidity conditions): stable
Molecule: O=C1Cc2cc(CCN3CCN(c4nsc5ccccc45)CC3)c(Cl)cc2N1 [Form I, ziprasidone mesylate]

The remaining lines, values behind:

Molecule: ziprasidone mesylate dihydrate [Dihydrate Lath]
K.F. [1, 6]: 3.1%
RESULT (XRD) [1, 6]: Dihydrate Lath
K.F. [1, 7]: 0.4%
RESULT (XRD) [1, 7]: Dihydrate Lath
K.F. ([1]; heated at TEMP. 140, 30 min): 0.3%
RESULT (XRD) ([1]; heated at TEMP. 140, 30 min): Dihydrate Lath
K.F. ([1]; heated at TEMP. 160, 30 min): 0.2%
RESULT (XRD) ([1]; heated at TEMP. 160, 30 min, listed as Dihydrate lath, mesylate dihydrate): Transformation from dihydrate lath to Form VI
RESULT (XRD) ([1]; heated at TEMP. 160, 30 min, mesylate dihydrate): Form VI
K.F. ([1]; t = 0 (before heating)): (t = 0 6.5%)

Molecule: O=C1Cc2cc(CCN3CCN(c4nsc5ccccc45)CC3)c(Cl)cc2N1 [Form IX, ziprasidone mesylate]
water content (by Karl Fisher) ([2]; 100% RH at RT, 10 days): 5%
difference between water content before and after the exposure [2, 8]: 0.2%
water content after the exposure [2, 8]: about 5.0%
water content (by Karl Fisher) ([2]; Initial): 4.7%
water content before the exposure ([2]; before exposure to 100% humidity): about 4.8%
hygroscopicity ([2]; non-hygroscopic = does not absorb more than 0.2% of water at 80% humidity, 25° C., 24 hours): non-hygroscopic

Molecule: O=C1Cc2cc(CCN3CCN(c4nsc5ccccc45)CC3)c(Cl)cc2N1 [Form II, ziprasidone mesylate]
RESULT (XRD) ([1]; heated at TEMP. 90, 30 min): Form II

Molecule: ziprasidone mesylate trihydrate
thermodynamic stability among the four crystalline forms of ziprasidone mesylate [5]: most thermodynamically stable form
